A short description of this data set: method code SF-AS, from DOI: 10.1002/(sici)1521-3897(199907)341:5<499::aid-prac499>3.0.co;2-7. The following applies: pH 7.4.
`Nc1nnnn1-c1ccc(F)cc1` had a log distribution coefficient (logD) of 0.75.

Regarding `Nc1nnnn1-c1cc(Cl)ccc1Cl`, the logD came out at 1.61.

The molecule `Nc1nnnn1-c1ccccc1Cl` yielded a logD of 0.87.

`Nc1nnnn1-c1ccc(Cl)cc1Cl` registered a pH-dependent lipophilicity (logD) of 1.63.

`Cc1cccc(-n2nnnc2N)c1` displayed a pH-dependent lipophilicity (logD) of 1.24.

For `Nc1nnnn1-c1cccc([N+](=O)[O-])c1`, the pH-dependent lipophilicity (logD) came to 0.67.

`Nc1nnnn1-c1ccc(Br)cc1` registered a log distribution coefficient (logD) of 1.64.

For `Nc1nnnn1-c1ccc(Cl)cc1`, the logD was 1.41.

On to `Nc1nnnn1-c1cc(Cl)c(Cl)cc1Cl`, for which the logD is 2.3.

As to `CCOc1ccc(-n2nnnc2N)cc1`, the pH-dependent lipophilicity (logD) was 1.32.

`Nc1nnnn1-c1c(Cl)cccc1Cl` displayed a log distribution coefficient (logD) of 1.56.

Molecule `Nc1nnnn1-c1ccccc1` registered a logD of 0.69.

Molecule `Cc1ccccc1-n1nnnc1N` gave a logD of 0.93.

Regarding `Nc1nnnn1-c1ccc([N+](=O)[O-])cc1`, the logD came out at 0.77.

Molecule `COc1ccc(-n2nnnc2N)cc1` registered a log distribution coefficient (logD) of 0.85. This logD and that of the molecule before are within 0.2 log units of each other.

Molecule `Nc1nnnn1-c1ccc(O)cc1` displayed a pH-dependent lipophilicity (logD) of 0.33.

As for `Nc1nnnn1-c1cccc(O)c1`, the logD was determined as 0.56.

As for `Nc1nnnn1-c1ccc2ccccc2c1`, the pH-dependent lipophilicity (logD) came to 2.08.

In the case of `Cc1ccc(C)c(-n2nnnc2N)c1`, the logD was 1.46.

Regarding `COc1ccccc1-n1nnnc1N`, the log distribution coefficient (logD) turned out to be 0.56.

Consider `Nc1nnnn1-c1cccc(Cl)c1`, for which the log distribution coefficient (logD) turned out to be 1.44.

`Nc1nnnn1-c1ccc(Cl)c(Cl)c1` came in with a log distribution coefficient (logD) of 2.06.

`Cc1ccc(-n2nnnc2N)cc1Cl`: the pH-dependent lipophilicity (logD) came out at 1.89. This logD and that of the molecule before are within 0.2 log units of each other.

`Nc1nnnn1-c1cccc2ccccc12`: the pH-dependent lipophilicity (logD) turned out to be 1.72. This logD and that of the molecule before are within 0.2 log units of each other.

As usually defined, the logD is the decadic logarithm of the distribution of all forms, ionised or not, between an organic phase and buffer at a given pH. The low end stands for a more hydrophilic compound, the high end for a more lipophilic compound.

These data come from the SangsterLogP compilation.
